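Here, GI50 denotes the concentration required for 50% inhibition of growth. TGI marks complete inhibition of growth.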
Assays:
Assay in all cases: NCI tumour cell line growth inhibition, 384-well format
[1] = system: NCI-H322M lung
[2] = system: COLO 205 colon
[3] = system: IGROV1 ovarian
[4] = system: SF-268 CNS
[5] = system: SF-295 CNS
[6] = system: U251 glioblastoma
[7] = system: HCC-2998 colon
[8] = system: MDA-MB-435 melanoma
[9] = system: SF-539 CNS
[10] = system: UACC-257 melanoma
[11] = system: MDA-MB-468 breast
[12] = system: T-47D breast
[13] = system: HCT-15 colon
[14] = system: MDA-MB-231 breast
[15] = system: UO-31 renal
[16] = system: RPMI-8226 leukemia
[17] = system: A498 renal
[18] = system: HS 578T breast
[19] = system: K-562 leukemia
[20] = system: SN12C renal
[21] = system: OVCAR-5 ovarian
[22] = system: OVCAR-3 ovarian
[23] = system: PC-3 prostate
[24] = system: EKVX NSCLC
[25] = system: UACC-62 melanoma
[26] = system: MALME-3M melanoma
[27] = system: HOP-62 NSCLC
[28] = system: MCF7 breast
[29] = system: ACHN renal
[30] = system: SNB-19 CNS
[31] = system: CCRF-CEM leukemia
[32] = system: HOP-92 NSCLC
[33] = system: SK-MEL-5 melanoma
[34] = system: HT29 colon
[35] = system: SW-620 colon
[36] = system: BT-549 breast
[37] = system: 786-0 renal
[38] = system: HCT-116 colon
[39] = system: MOLT-4 leukemia
[40] = system: LOX IMVI melanoma
[41] = system: NCI/ADR-RES ovarian
[42] = system: NCI-H460 NSCLC
[43] = system: CAKI-1 renal
[44] = system: SK-OV-3 ovarian
[45] = system: DU-145 prostate
[46] = system: OVCAR-4 ovarian
[47] = system: RXF 393 renal
[48] = system: KM12 colon
[49] = system: A549 NSCLC
[50] = system: NCI-H226 lung
[51] = system: SR leukemia
[52] = system: NCI-H23 lung
[53] = system: M14 melanoma
[54] = system: SNB-75 CNS
[55] = system: HL-60(TB) leukemia
[56] = system: SK-MEL-2 melanoma
[57] = system: SK-MEL-28 melanoma
[58] = system: NCI-H522 lung

SMILES: COc1c(C)cnc(Cn2cnc3c(Cl)nc(N)nc32)c1C
- GI50 [1]: 167 nM
- TGI [1]: 80.1 µM
- GI50 [2]: 28.6 nM
- TGI [2]: 98.1 nM
- GI50 [3]: 55.9 nM
- TGI [3]: 626 nM
- GI50 [4]: 133 nM
- TGI [4]: 23.8 µM
- GI50 [5]: 134 nM
- TGI [5]: 654 nM
- GI50 [6]: 47.3 nM
- TGI [6]: 1300 nM
- GI50 [7]: 92.3 nM
- TGI [7]: 438 nM
- GI50 [8]: 154 nM
- TGI [8]: 53.7 µM
- GI50 [9]: 97.2 nM
- TGI [9]: 389 nM
- GI50 [10]: 651 nM
- TGI [10]: 34.6 µM
- GI50 [11]: 62.2 nM
- TGI [11]: 276 nM
- GI50 [12]: 339 nM
- TGI [12]: 14.8 µM
- GI50 [13]: 59.6 nM
- TGI [13]: 13.1 µM
- GI50 [14]: 272 nM
- TGI [14]: 927 nM
- GI50 [15]: 74.5 nM
- TGI [15]: > 100 µM
- GI50 [16]: 71.5 nM
- TGI [16]: 296 nM
- GI50 [17]: 381 nM
- TGI [17]: > 100 µM
- GI50 [18]: 307 nM
- TGI [18]: 1410 nM
- GI50 [19]: 55.8 nM
- TGI [19]: 621 nM
- GI50 [20]: 143 nM
- TGI [20]: 488 nM
- GI50 [21]: 264 nM
- TGI [21]: > 100 µM
- GI50 [22]: 165 nM
- TGI [22]: 13.8 µM
- GI50 [23]: 137 nM
- TGI [23]: 664 nM
- GI50 [24]: 319 nM
- TGI [24]: 5.03 µM
- GI50 [25]: 145 nM
- TGI [25]: 711 nM
- GI50 [26]: 189 nM
- TGI [26]: 438 nM
- GI50 [27]: 112 nM
- TGI [27]: 1150 nM
- GI50 [28]: 51.2 nM
- TGI [28]: > 100 µM
- GI50 [29]: 163 nM
- TGI [29]: 38 µM
- GI50 [30]: 262 nM
- TGI [30]: 5.62 µM
- GI50 [31]: 36.9 nM
- TGI [31]: 430 nM
- GI50 [32]: 241 nM
- TGI [32]: 737 nM
- GI50 [33]: 59.6 nM
- TGI [33]: 16 µM
- GI50 [34]: 61.5 nM
- TGI [34]: > 100 µM
- GI50 [35]: 78.7 nM
- TGI [35]: 5.03 µM
- GI50 [36]: 50.8 nM
- TGI [36]: 269 nM
- GI50 [37]: 89.4 nM
- TGI [37]: 2780 nM
- GI50 [38]: 194 nM
- TGI [38]: > 100 µM
- GI50 [39]: 36.2 nM
- TGI [39]: 123 nM
- GI50 [40]: 115 nM
- TGI [40]: 245 nM
- GI50 [41]: 177 nM
- TGI [41]: 498 nM
- GI50 [42]: 34 nM
- TGI [42]: 123 nM
- GI50 [43]: 470 nM
- TGI [43]: 2870 nM
- GI50 [44]: 264 nM
- TGI [44]: 5 µM
- GI50 [45]: 40.7 nM
- TGI [45]: 1410 nM
- GI50 [46]: 286 nM
- TGI [46]: 27.4 µM
- GI50 [47]: 692 nM
- TGI [47]: 7.52 µM
- GI50 [48]: 52.3 nM
- TGI [48]: 14 µM
- GI50 [49]: 73.9 nM
- TGI [49]: > 100 µM
- GI50 [50]: 245 nM
- TGI [50]: > 100 µM
- GI50 [51]: 16.3 nM
- TGI [51]: 31.1 nM
- GI50 [52]: 149 nM
- TGI [52]: 500 nM
- GI50 [53]: 287 nM
- TGI [53]: 18.1 µM
- GI50 [54]: 357 nM
- TGI [54]: 2080 nM
- GI50 [55]: 52.2 nM
- TGI [55]: 172 nM
- GI50 [56]: 482 nM
- TGI [56]: 783 nM
- GI50 [57]: 388 nM
- TGI [57]: 16.2 µM
- GI50 [58]: 61.7 nM
- TGI [58]: 313 nM
